“Also recorded” adds a separate entry of the source. Where a SMILES comes first, the peptide text is derived from it. Where no end group is shown, it is not given here. [ ]: non-standard residue; d: D form.
Key:
[1] = system: pig ischemic jejunum tissue; experiment: Ex vivo assessment of peptide stability (degradation by brush border enzymes) in pig ischemic jejunum tissue; details: for peptide concentration, T = 0 mins after addition / peptide concentration, T = 30 mins after addition / peptide concentration, T = 120 mins after addition: 1 μm addition of each peptide to pig ischemic jejunum tissue
Description: (§1) After 45-minutes of ischemia, the pigs were euthanized, and intestinal segments were collected. Non-ischemic control tissue was also collected at this time. Following tissue collection, the seromuscular layer was stripped from the mucosa while the tissue was bathed in oxygenated (95% 02, 5% CO2) Ringer's solution (in mmol/L: 154 Na^+, 6.3 K^+, 137 Cl^−, and 24 HCO3−; pH 7.4). The mucosa was subsequently mounted in 1.1-cm^2 aperture Ussing chambers, as described in previous studies, which are herein incorporated by reference in their entireties, Moeser, A. J.; Nighot, P. K.; Ryan, K. A.; Wooten, J. G.; Blikslager, A. T. Prostaglandin-mediated inhibition of Na+/H+ exchanger isoform 2 stimulates recovery of barrier function in ischemia-injured intestine. Am J Physiol Gastrointest Liver Physiol (2006), 291, G885-94; and Jin, Y.; Blikslager, A. T. Myosin light chain kinase mediates intestinal barrier dysfunction via occludin endocytosis during anoxia/reoxygenation injury. Am J Physiol Cell Physiol (2016), 311, C996-C1004. Tissues were bathed on both the mucosal and serosal sides with 10 mL Ringer's solution. The mucosal bathing solution contained 10 mM mannitol while the serosal side was osmotically balanced with 10 mM glucose. Bathing solutions were oxygenated (95% O2, 5% CO2) and circulated in water-jacketed reservoirs. The spontaneous potential difference (PD) was measured using Ringer-agar bridges connected to calomel electrodes, and the PD was short-circuited through Ag—AgCl electrodes using a voltage clamp that was corrected for fluid resistance. TER (Ω·cm^2) was calculated from the spontaneous PD and short-circuit current (Isc). If the spontaneous PD was between −1.0 and 1.0 mV, tissues were current clamped at ±100 μA for 5-seconds, and the PD was recorded. Isc and PD were recorded at 15-minute intervals over a 4-hour experiment. After tissues were mounted on Ussing chambers, all tissues were allowed to acclimate for a period of 30-minutes to establish stable baseline measurements, after which experimental treatments of larazotide or larazotide analogs was added to the apical chamber. Tissues were monitored by measuring transepithelial resistance (TER) for 240 min. Samples of Ringers solution were collected at select timepoints and quenched with 5% trifluoroacetic acid (TFA) solution (in 80% acetonitrile (ACN): 20% DI water). Quenched samples were centrifuged at 13000×g for 5-minutes and the resulting supernatants were stored at −80° C. for future MS analysis.
The recovery effects of Analogs #5 and 6 were also compared in an ex vivo test for recovery of ischemic-injured pig jejunum tissue. […] Analogs #5 and 6 were further compared for peptide stability—Analog #5 (D-Val), Analog #6 (All D) and larazotide concentrations were measured at TO, 30, and 120 minutes after 1 μm addition of each to pig ischemic jejunum tissue.
A set of experiments was conducted in order to compare the all-D amino acid larazotide analog (Analog #6) with larazotide in terms of degradation profiles, recovery effects, and dose response profiles.

[2] = system: ischemic-injured porcine jejunum; experiment: Ex vivo recovery of transepithelial electrical resistance (TEER/TER) of ischemic-injured porcine jejunum in Ussing chambers; type: cell-based, pig; details: for effect of excess fragment on action of Analog #6: 10 μM fragment applied 30 mins before 0.1 μM Analog #6 (100 fold excess), FIGS. 8-10; for activity as tight junction regulators: fragment alone; for effect of fragment on larazotide activity: fragment mixed with full-length larazotide (10 μM fragment + 1 μM larazotide, FIG. 7); for induction of recovery of ischemic-injured tissue: FIG. 2
Description: In order to evaluate the activity profile of larazotide and larozotide analogs, an ex vivo assay was employed measuring transepithelial electrical resistance (TEER) of ischemic-injured porcine jejunum.
Several larazotide analogs were initially tested in an ex vivo model, measuring the recovery of an ischemic-injured pig jejunum tissue.
Six-to-eight-week-old Yorkshire crossbred pigs of either sex were individually housed and maintained on a commercially pelleted feed. Pigs were held off feed for 12 hours prior to experimental surgery. General anesthesia was induced with xylazine (1.5 mg/kg IM), ketamine (11 mg/kg IM), followed by mask delivery of isoflurane vaporized in 100% 02. Pigs were subsequently orotracheally intubated, followed by continued delivery of isoflurane in 100% 02 to maintain a surgical plane of anesthesia. An intravenous catheter was placed in an ear vein for delivery of fluids during surgery (lactated Ringer solution, 15 m1·kg^−1h^−1, IV). The distal jejunum was approached via a ventral midline incision. Jejunal segments were delineated by ligating the intestine at 8-10 cm intervals with 2-0 silk, and were subjected to segmental ischemia by ligating the local mesenteric blood supply with 2-0 silk for 45-minutes.
as §1, with “chamber.” for “chamber. Tissues were monitored by measuring transepithelial resistance (TER) for 240 min. Samples of Ringers solution were collected at select timepoints and quenched with 5% trifluoroacetic acid (TFA) solution (in 80% acetonitrile (ACN): 20% DI water). Quenched samples were centrifuged at 13000×g for 5-minutes and the resulting supernatants were stored at −80° C. for future MS analysis.”

[3] = system: BLM-induced pulmonary fibrosis model mice
Celiac disease symptoms = details: cited from earlier work

Which results are given for `CC(C)C[C@H](NC(=O)[C@H](NC(=O)CNC(=O)CN)C(C)C)C(=O)N[C@H](C(=O)N[C@@H](CCC(N)=O)C(=O)N1CCC[C@H]1C(=O)NCC(=O)O)C(C)C` [Analog #5, H2N-GG(dV)LVQPG-OH] (H-GG[dV]LVQPG-OH)?
peptide concentration, T = 0 mins after addition [1]: 0.510 µg/mL; peptide concentration, T = 30 mins after addition [1]: 0.012 µg/mL; peptide concentration, T = 120 mins after addition [1]: 0.005 µg/mL

Which results are given for `CC(C)C[C@@H](NC(=O)[C@H](NC(=O)CNC(=O)CN)C(C)C)C(=O)N[C@@H](C(=O)N[C@H](CCC(N)=O)C(=O)N1CCC[C@@H]1C(=O)NCC(=O)O)C(C)C` [Analog #6, H2N-GG(dV)(dL)(dV)(dQ)(dP)G-OH] (H-GG[dV][dL][dV][dQ][dP]G-OH)?
peptide concentration, T = 0 mins after addition [1]: 0.517 ug/ml ug/mL; peptide concentration, T = 30 mins after addition [1]: 0.436 µg/mL; peptide concentration, T = 120 mins after addition [1]: 0.086 µg/mL; resistance to brush border enzyme degradation ([1]; jejunum epithelial brush border enzymes, in words (Table 2, FIG. 4)): significant resistance to brush border enzyme degradation as compared to larazotide and Analog #5; also recorded: significantly more resistant to degradation than larazotide; dose response of repair of injured intestine (TER) ([2]; 0.01 μM, 0.1 μM, 1 μM and 10 μM, FIG. 6): did not exhibit the distinct bell-shaped dose-response of larazotide; recovery of TER ([2]; 0.1 μM, FIG. 6): induced good recovery of TER; recovery of ischemic-injured intestine (transepithelial electrical resistance) ([2]; 1 μM, recovery period of 240 minutes, FIG. 5): induces recovery to substantially the same extent as larazotide; recovery effect on ischemic-injured pig jejunum tissue ([2]; FIG. 3, Analog #6 compared with Analog #5): pronounced recovery effect as compared to Analog #5; lung fibrosis, Ashcroft grading of Masson's Trichrome-stained right lung sections ([3]; 1 mg/kg orally once daily Day 0 to 20, sacrifice Day 21, FIG. 18): less fibrosis than either the vehicle or larazotide samples; therapeutic effect in mouse model of pulmonary fibrosis ([3]; provided orally): better therapeutic effect than larazotide

For “(d)Val-(d)Leu-(d)Val-(d)Gln-(d)Pro-Gly [Analog A6F2]”, which “effect of excess fragment on action of Analog #6” value [2] is on record?
The value was “does not appear to be meaningfully blocked”.

What does the source list for “GVLVQPG [Fragment 1, reference compound]”?
activity as tight junction regulators [2]: inactive as tight junction regulators; effect of fragment on larazotide activity [2]: inhibit larazotide activity; also recorded: activity is completely abolished

With “Gly-(d)Val-(d)Leu-(d)Val-(d)Gln-(d)Pro-Gly [Analog A6F1]” as the compound, how does the “effect of excess fragment on action of Analog #6” value [2] read?
Its value is “less significant impact on the action of the all-D amino acid larazotide analog”.

For “H2N-(dV)GGVLVQPG-OH (H-[dV]GGVLVQPG-OH; SMILES CC(C)C[C@H](NC(=O)[C@@H](NC(=O)CNC(=O)CNC(=O)[C@H](N)C(C)C)C(C)C)C(=O)N[C@H](C(=O)N[C@@H](CCC(N)=O)C(=O)N1CCC[C@H]1C(=O)NCC(=O)O)C(C)C) [Analog #2]”, which “induction of recovery of ischemic-injured tissue” value (from here on “induction”) [2] is on record?
Its value is “no significant induction of recovery”.

Which “induction” value [2] does the source give for “H2N-GGV(dL)VQPG-OH (H-GGV[dL]VQPG-OH) [Analog #1]” here?
The value was “no significant induction of recovery”.

With “H2N-VGGVLVQPG-OH (H-VGGVLVQPG-OH) [Analog #3]” as the compound, how does the “induction” value [2] read?
Its value is “no significant induction of recovery”.

With “H-GGVLVQPG-OH [Larazotide, reference compound]” as the compound, how does the “peptide concentration, T = 0 mins after addition” value [1] read?
Its value is 0.508 µg/mL.

What about the “peptide concentration, T = 30 mins after addition” value [1] of the same compound?
The value was 0.212 µg/mL.

And the “peptide concentration, T = 120 mins after addition” value [1]?
Its value is 0.007 µg/mL.

What about the “dose-response of repair of ischemic-injured intestine (TEER)” value ([2]; FIG. 1, low, middle and high dose range) of the same compound?
The value was ““bell-shaped” dose-dependent manner”.

And the “activity at higher doses in clinical trials” value (Celiac disease symptoms; higher doses (e.g., 1 mg and 2 mg doses))?
The value was “attenuation of activity, or no activity at all”.

What about the “reduction of Celiac disease symptoms” value (Celiac disease symptoms; lower doses (e.g., 0.5 mg dose)) of the same compound?
The value was “significant benefit at reducing Celiac disease symptoms”.

Which “activity as tight junction regulators” value [2] does the source give for VLVQPG [Fragment 2, reference compound] here?
The value was “inactive as tight junction regulators”.

And the “effect of fragment on larazotide activity” value [2]?
The value was “inhibit larazotide activity; also recorded: activity is completely abolished”.

Source: patent publication US20230218706A1 (9 Meters Biopharma, Inc., priority 2020, published 2023)
